Test results reported in patent US11479555B2, “Substituted 1,2-dihydro-3H-pyrazolo[3,4-D]pyrimidin-3-ones as inhibitors of WEE-1 kinase” (Newave Pharmaceutical Inc., priority 2018, dated 2022).

Tests used:
[1] = molecular target: Wee1 kinase (Homo sapiens (Human), UniProt P30291); test: Wee-1 biochemical assay; details: another study
Method: In determination of the Weel kinase activity, a synthetic peptide, Poly(Lys,Tyr) Hydrobromide (Lys:Tyr (4:1)) bought from Sigma was used as the substrate. The amount of the reaction mixture was 21.1 μL; and the composition of the reaction buffer was 50 mM Tris-HCl buffer (pH 7.4)/10 mM magnesium chloride/1 mM dithiothreitol. The purified Weel kinase, 2.5 μg of the substrate peptide, 10 μM of non-labeled adenosine triphosphate (ATP) and 1 μCi of [γ-^33P]-labeled ATP (2500 Ci/mmol or more) were added to it, and incubated at 30° C. for 30 minutes. Next, 10 μL of 350 mM phosphate buffer was added to the reaction mixture to stop the reaction. The substrate peptide was adsorbed by a P81 paper filter 96-well plate, then washed a few times with 130 mM phosphate buffer, and its radioactivity was counted with a liquid scintillation counter. The [γ-^33P]-labeled ATP was bought from Amersham Bioscience. To add the test compound to the reaction system, the compound was diluted with dimethylsulfoxide (DMSO) to prepare a series of dilutions. 1.1 μL of each dilution was added to the reaction system. As a control, 1.1 μL of DMSO was added to the reaction system. Such assays, carried out with a range of doses of test compounds, allow the determination of the Wee1 IC50 of the compounds of the present invention

[2] = Mice CNS PK study; assay type: in vivo; details: CD-1 mouse; for AUC(0-t): plasma, read-out: Plasma AUClast; for Kp: brain/plasma (printed as Brain/Blood), read-out: Brain/Blood Ratio
Method: The pharmacokinetics of compounds were evaluated in CD-1 mouse via Intravenous and Oral Administration. The iv dose was administered as a slow bolus in the Jugular vein, and oral doses were administered by gavage. The formulation for IV dosing is 5% DMSO in “20% HPBCD in water, and the PO formulation is 2.5% DMSO, 10% EtOH, 20% Cremphor EL, 67.5% D5W. The PK time point for the IV arm is 5, 15, 30 min, 1, 2, 4, 6, 8, 12, 24 hours post dose, and for PO arm is 15, 30 min, 1, 2, 4, 6, 8, 12, 24 hours post dose.
Plasma Samples Processing and Storage: Approximately 0.2 mL blood will be collected at each time point. Keep blood at room temperature and collect plasma within 15 min by centrifugation at 4000 g for 5 minutes in a 4° C. centrifuge. Plasma samples will be stored in polypropylene tubes. The plasma samples will be stored in a freezer at −75±15° C. prior to analysis.
Brain Samples Processing and Storage: The mice will be fully exsanguinated prior to tissue collection. Procedure: open chest cavity, cut ventricle and perform a gentle iv saline flush (saline flush volume ˜10 ml) with the animal placed head down at a 45 degree angle to facilitate blood removal. Tissue samples will be collected at adopted time point, quick frozen in ice box and kept at −75±15° C. All tissue samples will be weighted and homogenized with water by tissue weight (g) to water volume (mL) at ratio 1:3 before analysis. The actual concentration is the detected value multiplied by the dilution factor.
Concentrations of compounds in the plasma samples will be analyzed using a LC-MS/MS method. WinNonlin (Phoenix™, version 6.1) or other similar software will be used for pharmacokinetic calculations. The following pharmacokinetic parameters will be calculated, whenever possible from the plasma concentration versus time data: IV administration: C0, CL, Vd, T1/2, AUCinf, AUClast, MRT, Number of Points for Regression; PO administration: Cmax, Tmax, T1/2, AUCinf, AUClast, F %, Number of Points for Regression. The pharmacokinetic data will be described using descriptive statistics such as mean, standard deviation. Additional pharmacokinetic or statistical analysis may be performed at the discretion of the contributing scientist, and will be documented in the data summary.

[3] = tested on: A498; test: In vitro cellular anti-proliferation assay (ATPlite), A498; assay type: cell-based; details: Homo sapiens, about 72 hours, 5% FBS
Method: (§1) Cell antiproliferation was assayed by PerkinElmer ATPlite™ Luminescence Assay System. Briefly, the various test cancer cell lines were plated at a density of about 1×10^4 cells per well in Costar 96-well plates, and were incubated with different concentrations of compounds for about 72 hours in medium supplemented with 5% FBS. One lyophilized substrate solution vial was then reconstituted by adding 5 mL of substrate buffer solution, and was agitated gently until the solution was homogeneous. About 50 μL of mammalian cell lysis solution was added to 100 μL of cell suspension per well of a microplate, and the plate was shaken for about five minutes in an orbital shaker at ˜700 rpm. This procedure was used to lyse the cells and to stabilize the ATP. Next, 50 μL substrate solution was added to the wells and microplate was shaken for five minutes in an orbital shaker at ˜700 rpm. Finally, the luminescence was measured by a PerkinElmer TopCount® Microplate Scintillation Counter. Such assays, carried out with a range of doses of test compounds, allowed the determination of the cellular anti-antiproliferative IC50 of the compounds of the present invention.
(§2) The following table lists the LoVo IC50 values of another study for certain compounds of the invention.

[4] = tested on: SK-MES-1; test: In vitro cellular anti-proliferation assay (ATPlite), SK-MES-1; assay type: cell-based; details: Homo sapiens, about 72 hours, 5% FBS
Method: as §1, §2

[5] = tested on: LoVo; test: In vitro cellular anti-proliferation assay (ATPlite), LoVo; assay type: cell-based; details: Homo sapiens, about 72 hours, 5% FBS
Method: as §1, §2

[6] = tested on: WEE1; details: inhibits WEE1 activity, induces DNA damage and G2 checkpoint escape; read-out: EC50 in cell based assays; cited from earlier work
[7] = tested on: tumor; test: In vivo xenograft study; set-up: species or system CB.17 SCID mice; details: 7 dose at 100 mg/kg, day 18
Description: The CB.17 SCID mice are obtained at age 6-8 weeks from vendors and acclimated for a minimum 7-day period. The cancer cells are then implanted into the […] mice. Depending on the specific tumor type, tumors are typically detectable about two weeks following implantation. When tumor sizes reach ˜100-200 mm^3, the animals with appreciable tumor size and shape are randomly assigned into groups of 8 mice each, including one vehicle control group and treatment groups. Dosing varies depending on the purpose and length of each study, which typically proceeds for about 3-4 weeks. Tumor sizes and body weight are typically measured three times per week. In addition to the determination of tumor size changes, the last tumor measurement is used to generate the tumor size change ratio (T/C value), a standard metric developed by the National Cancer Institute for xenograft tumor evaluation. […] When tumor regression occurred (ΔT<0), however, the following formula is used: % T/T0=100×ΔT/T0.

Wee1 kinase, sequence (P30291 whole entry): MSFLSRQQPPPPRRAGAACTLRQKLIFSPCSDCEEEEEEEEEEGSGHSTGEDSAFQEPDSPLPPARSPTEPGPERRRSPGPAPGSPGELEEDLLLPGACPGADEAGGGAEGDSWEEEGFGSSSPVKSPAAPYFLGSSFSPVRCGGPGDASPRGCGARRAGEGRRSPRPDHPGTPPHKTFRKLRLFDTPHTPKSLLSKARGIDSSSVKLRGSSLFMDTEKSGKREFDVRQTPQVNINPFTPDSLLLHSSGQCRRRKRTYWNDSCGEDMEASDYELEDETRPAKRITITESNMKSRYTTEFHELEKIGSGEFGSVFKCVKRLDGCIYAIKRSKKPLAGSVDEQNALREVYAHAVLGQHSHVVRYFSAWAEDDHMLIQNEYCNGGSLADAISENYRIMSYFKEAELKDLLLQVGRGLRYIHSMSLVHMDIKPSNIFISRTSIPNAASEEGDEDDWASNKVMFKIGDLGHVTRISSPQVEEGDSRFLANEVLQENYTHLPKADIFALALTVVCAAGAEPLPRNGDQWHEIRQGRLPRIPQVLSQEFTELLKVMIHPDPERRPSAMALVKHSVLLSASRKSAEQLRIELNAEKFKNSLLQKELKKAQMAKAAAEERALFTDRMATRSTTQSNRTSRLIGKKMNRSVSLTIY

Row | SMILES | IC50 [1] | Brain AUClast [2] | AUC(0-t) [2] | Kp [2] | IC50 [3] | IC50 [4] | IC50 [5] | EC50 [6] | tumor regression [7]
1 | CC(C)n1c(=O)c2cnc(Nc3ccc(N4CCN(C)CC4)cc3)nc2n1-c1cccc(C(C)(C)F)n1 [Example 13, 1-(6-(2-fluoropropan-2-yl)pyridin-2-yl)-2-isopropyl-6-((4-(4-methylpiperazin-1-yl)phenyl)amino)-1,2-dihydro-3H-pyrazolo[3,4-d]pyrimidin-3-one] | < 1.5 nM | 11,907 h*ng/mL | 8660 ng·h/mL | 1.38 | < 500 nM | < 250 nM | < 300 nM | – | –
2 | CC(C)n1c(=O)c2cnc(Nc3ccc(N4CCN(C)CC4)cc3)nc2n1-c1cccc(C(C)(C)C(F)(F)F)n1 [Example 11, 2-isopropyl-6-((4-(4-methylpiperazin-1-yl)phenyl)amino)-1-(6-(1,1,1-trifluoro-2-methylpropan-2-yl)pyridin-2-yl)-1,2-dihydro-3H-pyrazolo[3,4-d]pyrimidin-3-one] | < 1.5 nM | 12,002 h*ng/mL | 7510 ng·h/mL | 1.6 | < 500 nM | < 250 nM | < 300 nM | – | –
3 | C=CCn1c(=O)c2cnc(Nc3ccc(N4CCN(C)CC4)cc3)nc2n1-c1cccc(C(C)(C)O)n1 [AZD1775, reference compound] | – | 524 ng·h/mL | 9000 ng·h/mL | 0.058 | < 500 nM | < 250 nM | < 300 nM | […] | –
4 | CC(C)n1c(=O)c2cnc(Nc3ccc(N4CCN(C)CC4)cc3)nc2n1-c1cccc(C2CC2)n1 [Example 15, 1-(6-cyclopropylpyridin-2-yl)-2-isopropyl-6-((4-(4-methylpiperazin-1-yl)phenyl)amino)-1,2-dihydro-3H-pyrazolo[3,4-d]pyrimidin-3-one] | < 1.5 nM | 4,910 h*ng/mL | 4710 ng·h/mL | 1 | < 500 nM | < 250 nM | < 300 nM | – | –
5 | C=CCn1c(=O)c2cnc(Nc3cnn(C4CCN(C5CCC(F)(F)CC5)CC4)c3)nc2n1-c1cccc(C(C)(C)O)n1.Cl [Example 3, 6-([1-[1-(4,4-difluorocyclohexyl)piperidin-4-yl]-1H-pyrazol-4-yl]amino)-1-[6-(2-hydroxypropan-2-yl)pyridin-2-yl]-2-(prop-2-en-1-yl)-1H,2H,3H-pyrazolo[3,4-d]pyrimidin-3-one Hydrochloride] | – | – | – | – | – | – | – | – | complete regression of the tumor
